Assay [1] concerns the target VIM-2 in E. coli SNO3 containing pET26b-blaVIM-2 (Escherichia coli, UniProt Q5U7L7). The assay can be described thus: MBL inhibition in whole E. coli cells expressing MBL (nitrocefin hydrolysis). Type of assay: cell-based. Particulars: whole cell, test substance 250 μM.
Assay [2] has as its target GIM-1 in E. coli SNO3 containing pET26b-blaGIM-1 (Pseudomonas aeruginosa, UniProt Q704V1). The description is as above. Type of assay: cell-based. The note with it: whole cell, test substance 250 μM.
The next assay has as its target VIM-2 (Escherichia coli, UniProt Q5U7L7). The assay can be described thus: IC50 determination against purified MBL, nitrocefin reporter substrate. Type of assay: biochemical. The note with it: purified enzyme 1 nM, nitrocefin 50 μM, 25° C. The method, then: (§1) General Protocol for Determination of IC50-Values
(§2) Buffers: A: 50 mM HEPES pH 7.2, 100 μM ZnCl2
(§3) • B: 50 mM HEPES pH 7.2, 100 μM ZnCl2 and 400 μg/ml Bovine Serum Albumin (BSA) Equipment: SpectraMax 96 well reader • 96 well plates • Cuvettes • General plastics: dilution tubes, eppendorfs etc. Method: Inhibitors: a. Dissolved in 100% DMSO at a concentration of 10 mM • b. Dissolve the inhibitor in buffer A to a concentration of 25% DMSO. No more than 2.5% DMSO is tolerable in the assay. 100% DMSO (10 mM); […]; […] • c. Make a 2-fold dilution series of the inhibitor. At least 8 dilutions should be made. See example in table 1 Reporter Substrate (Nitrocefin): • a. Dilute a small amount of nitrocefin in 1 ml of DMSO • b. Add 990 μl buffer A+10 μl of nitrocefin to a cuvette. • c. Measure initial OD at absorbance specific for the substrate • d. Add purified enzyme to the cuvette and let the hydrolysis run to completion (the more concentrated the enzyme the faster the hydrolysis will run) • e. Measure the end OD • f. Calculate the concentration of substrate: [(End OD−Initial OD)×dilution factor]/Δε (Δε Nitrocefin=17400) • g. Dilute nitrocefin to 100 μM in buffer A Enzyme: Dilute purified enzyme in buffer B to a concentration of 10 nM. Assay: a. Set the settings and temperature on the Spectramax/software: • I. Kinetics • II. λ: 482 • III. Time: 20 min • IV. Interval: 2-5 sec. • V. Mix before 1st read: 5 sec. • VI. Temp: 25° C. • b. Add 30 μl buffer A, 10 μl purified enzyme (final concn. 1 nM), and 10 μl inhibitor to assay wells (duplicates for each inhibitor concentration). Also include a negative control. Wells with no added inhibitor, just 40 μl buffer A. See illustration in table 1. • c. Incubate the plate in the reader for 5 min. • d. Add 50 μl nitrocefin (final concn. 50 μM) to assay wells. This should be done quickly—preferably with an electronic multi-channel pipette. • e. Start the readings immediately. Determine: the initial velocity (V0) for each inhibitor concentration and calculate IC50.

The target of another assay is GIM-1 (Pseudomonas aeruginosa, UniProt Q704V1). Described as above. Particulars: purified enzyme 1 nM, nitrocefin 50 μM, 25° C. It counts as biochemical. As for the experimental part:
as §1, §2, §3

The target in a further assay is NDM-1 (Klebsiella pneumoniae, UniProt C7C422). Described as above. Type of assay: biochemical. The note with it: purified enzyme 1 nM, nitrocefin 50 μM, 25° C. The method, then:
as §1, §2, §3

The subject of assay [3] is MBL-negative clinical strains. The assay can be described thus: Synergy with meropenem in MBL-negative clinical strains. Type of assay: cell-based. The method, then: (§4) General Protocol for Microbroth Dilution Method for Evaluating Antibacterial Activity of Compounds or Synergistic Effect of Compound-Antibiotic Combination
(§5) • Plate bacterial strain(s) on appropriate media: • Gram-negative bacteria with ESBLs or carbapenemases: green agar plates with 100 mg/L ampicillin • Gram-negative bacteria without β-lactamases: green agar plates • Gram-positive bacteria (Staphylococci and Enterococci): blood agar plates • Incubate o.n. at 37° C. Day 2: Prepare the Bacterial Inoculum: • Prepare a 0.5 McFarland suspension of bacteria in 0.85% NaCl. (Should be used within 15 min of preparation). • Dilute the 0.5 McFarland suspension 1:100 into MH broth. Check the inoculum by diluting the prepared bacterial suspension 1:100 (10 μl bacterial suspension+990 μl 0.85% NaCl). Plate 10 μl of the dilution on MH agar plates (×2). Incubate o.n. at 37° C., count the colonies and calculate the final CFU/ml inoculum in the plate by multiplying the average number of colonies with 10000 and divide by 2. The final inoculum should be between 3-7×10^5 CFU/ml. • Add 50 μl of the prepared bacterial suspension to each well in the microtiter plate except negative growth control. Preparation of Compounds/Antibiotics • Calculate the desired concentration-range and volume of the compounds/antibiotics in the assay. […] Dilute the stock solution in MH broth. […]

The test system of another assay is E. coli 50639799 (VIM-1). The assay can be described thus: Microbroth dilution, meropenem MIC with/without compound. It counts as cell-based. Particulars: absence of inhibitor; 50639799 E. coli VIM-1. As for the experimental part: as §4
(§6) • Plate bacterial strain(s) on appropriate media: • Gram-negative bacteria with ESBLs or carbapenemases: green agar plates with 100 mg/L ampicillin • Gram-negative bacteria without β-lactamases: green agar plates • Gram-positive bacteria (Staphylococci and Enterococci): blood agar plates • Incubate o.n. at 37° C. Day 2: Prepare the Bacterial Inoculum: • Prepare a 0.5 McFarland suspension of bacteria in 0.85% NaCl. (Should be used within 15 min of preparation). • Dilute the 0.5 McFarland suspension 1:100 into MH broth. Check the inoculum by diluting the prepared bacterial suspension 1:100 (10 μl bacterial suspension+990 μl 0.85% NaCl). Plate 10 μl of the dilution on MH agar plates (×2). Incubate o.n. at 37° C., count the colonies and calculate the final CFU/ml inoculum in the plate by multiplying the average number of colonies with 10000 and divide by 2. The final inoculum should be between 3-7×10^5 CFU/ml. • Add 50 μl of the prepared bacterial suspension to each well in the microtiter plate except negative growth control. Preparation of Compounds/Antibiotics • Calculate the desired concentration-range and volume of the compounds/antibiotics in the assay. […] Dilute the stock solution in MH broth. Make subsequent 2-fold dilutions in MH broth of the desired concentrations if a concentration range is to be tested (remember the extra dilution factor in the assay plate). Always include extra volume for pipetting. Take into consideration stock solutions that are made in buffers that have an effect on bacterial growth (e.g. DMSO). Assay: • Determining the MIC of compounds/antibiotics alone: • Add 25 μl of each concentration of compound/antibiotic to row 2-11 (highest concentration in row 2) • Add 25 μl MH broth to row 2-11 • Add 50 μl MH broth to row 12 (positive control) • Add 100 μl MH broth to row 1 • Add 50 μl bacterial suspension to row 2-12. • Determining the MIC of antibiotics+compounds: • Add 25 μl of each concentration of antibiotic to row 2-11 (highest concentration in row 2) • Add 25 μl of compound to row 2-11 • Add 50 μl MH broth to row 12 (positive control) • Add 100 μl MH broth to row 1 • Add 50 μl bacterial suspension to row 2-12. • Incubate the plate for 20 hrs at 37° C. and determine the MIC in the presence and absence of inhibitor.

Assay [4] deals with K. pneumoniae A3-81 (VIM-1). The description is as above. Type of assay: cell-based. The note with it: absence of inhibitor; A3-81 K. pneumoniae VIM-1. As for the experimental part: as §4, §6
For assay [5], the system named is K. pneumoniae K66-45 (NDM-1). Described as above. It counts as cell-based. The note with it: absence of inhibitor; K66-45 K. pneumoniae NDM-1. The method, then: as §4, §6
The subject of assay [6] is K. pneumoniae 50732159 (MBL negative). The description is as above. Type of assay: cell-based. Particulars: 50732159 K. pneumoniae MBL negative. As for the experimental part: as §4, §6
A further assay has as its system E. coli K71-77 (NDM-1). The description is as above. It counts as cell-based. Particulars: absence of inhibitor; K71-77 E. coli NDM-1. The method, then: as §4, §6
Assay [7] relates to E. coli 50739467 (MBL negative). The assay is described as above. Type of assay: cell-based. Particulars: 50739467 E. coli MBL negative. As for the experimental part:
as §4, §6

Assay [8] has as its system MBL-producing P. aeruginosa, K. pneumoniae and E. coli. The assay can be described thus: Synergy with meropenem in MBL-producing clinical strains. Type of assay: cell-based. The note with it: compound 125 μM. The method, then: as §4, §5
Assay [9] deals with P. aeruginosa 50808021 (MBL negative). The assay can be described thus: Microbroth dilution, meropenem MIC with/without compound. It counts as cell-based. Particulars: compound at 125 μM; 50808021 P. aeruginosa MBL negative. The method, then:
as §4, §6
In general terms: In broth dilution the organism is exposed to a series of concentrations in liquid medium.

SMILES strings stand for the structures.

This note sets out measurements from patent publication US10227327B2, “Inhibitors of metallo-beta-lactamase (MBL) comprising a zinc chelating moiety” (Universitetet I Oslo, priority 2013, dated 2019).

Broadly, the inhibition is the percentage by which the read-out fell short of the control. Low values mean a weak effect, high ones a strong effect. What is called IC50 is the concentration that inhibits the measured activity by half. Read a high IC50 as lower potency.

Sequence of NDM-1 (C7C422 whole entry, looked up, species assumed): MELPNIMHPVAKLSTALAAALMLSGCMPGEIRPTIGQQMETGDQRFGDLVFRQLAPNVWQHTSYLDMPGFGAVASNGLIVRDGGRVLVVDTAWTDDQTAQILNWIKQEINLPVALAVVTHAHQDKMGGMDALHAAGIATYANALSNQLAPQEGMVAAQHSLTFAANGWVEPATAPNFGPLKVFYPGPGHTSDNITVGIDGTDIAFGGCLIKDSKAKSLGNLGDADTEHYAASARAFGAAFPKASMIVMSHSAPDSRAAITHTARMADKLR
Sequence of GIM-1 in E. coli SNO3 containing pET26b-blaGIM-1 (Q704V1 19-250 limits assumed): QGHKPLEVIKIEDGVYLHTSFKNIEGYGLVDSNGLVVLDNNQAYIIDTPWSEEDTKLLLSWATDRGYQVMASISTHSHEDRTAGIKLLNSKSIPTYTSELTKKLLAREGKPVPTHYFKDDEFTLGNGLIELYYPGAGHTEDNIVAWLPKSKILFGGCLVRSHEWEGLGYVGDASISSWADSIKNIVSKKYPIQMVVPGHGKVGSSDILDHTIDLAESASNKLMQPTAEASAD
Sequence of GIM-1 (Q704V1 19-250 limits assumed): as above

As to `COc1ccc(Cn2cc(CN(Cc3ccccn3)Cc3ccccn3)nn2)cc1` [Example 3, 1-(1-(4-methoxybenzyl)-1H-1,2,3-triazol-4-yl)-N,N-bis(pyridin-2-ylmethyl)methanamine], the inhibition at 250 µM in assay [1] was found to be 74%; in [2] it was 15.7%. Moreover, the IC50 against VIM-2 amounted to 19.8 µM.
Consider `COc1cc(-n2cc(CN(Cc3ccccn3)Cc3ccccn3)nn2)cc(OC)c1OC` [Example 5, 1-(pyridin-2-yl)-N-(pyridin-2-ylmethyl)-N-((1-(3,4,5-trimethoxyphenyl)-1H-1,2,3-triazol-4-yl)methyl)methanamine], for which the values for the inhibition at 250 µM in [1] and in [2] were 73.8% and 14.4%, respectively. Moreover, the IC50 on GIM-1 was found to be 0.79 µM; on VIM-2, 11.5 µM.
The like results for `O=[N+]([O-])c1ccc(Cn2cc(CN(Cc3ccccn3)Cc3ccccn3)nn2)cc1` [Example 6, 1-(1-(4-nitrobenzyl)-1H-1,2,3-triazol-4-yl)-N,N-bis(pyridin-2-ylmethyl)methanamine] were, in that order, 82.1%, 20.6%, 0.71 µM and 40.9 µM.
For `COc1cc(Cn2cc(CN(Cc3ccccn3)Cc3ccccn3)nn2)cc(OC)c1OC` [Example 7, 1-(pyridin-2-yl)-N-(pyridin-2-ylmethyl)-N-((1-(3,4,5-trimethoxybenzyl)-1H-1,2,3-triazol-4-yl)methyl)methanamine], the figures for the inhibition at 250 µM in assay [1] and in [2] were 75.3% and 12.5%, respectively. Also, the results for the IC50 at GIM-1 and at VIM-2 were 0.14 µM and 18.7 µM, respectively.
With `COc1ccc(Cn2cc(CN(Cc3ccccn3)Cc3ccccn3)nn2)cc1[N+](=O)[O-]` [Example 8, 1-(1-(4-methoxy-3-nitrobenzyl)-1H-1,2,3-triazol-4-yl)-N,N-bis(pyridin-2-ylmethyl)methanamine], the inhibition at 250 µM in assay [1] was 83%; in [2], 22.2%. In addition, the values for the IC50 at NDM-1, against GIM-1 and at VIM-2 were 1.06 µM, 1.03 µM and 14.8 µM, respectively.
The like results for `COc1ccc(Cn2cc(CN(Cc3ccccn3)Cc3ccccn3)nn2)cc1Br` [Example 9] were, in that order, 84.2%, 14.8%, 0.6 µM, 3.15 µM and 19 µM.
Take `COc1ccc(-n2cc(CN(Cc3ccccn3)Cc3ccccn3)nn2)c(OC)c1` [Example 11, 1-(1-(2,4-dimethoxyphenyl)-1H-1,2,3-triazol-4-yl)-N,N-bis(pyridin-2-ylmethyl)methanamine]: the figures for the inhibition at 250 µM in assay [1] and in [2] were 75.1% and 16.5%, respectively. For the same compound, the IC50 came to 0.86 µM on GIM-1 and 12.2 µM against VIM-2.
With `FC(F)(F)c1ccc(-n2cc(CN(Cc3ccccn3)Cc3ccccn3)nn2)cc1` [Example 12, 1-(pyridin-2-yl)-N-(pyridin-2-ylmethyl)-N-((1-(4-(trifluoromethyl)phenyl)-1H-1,2,3-triazol-4-yl)methyl)methanamine], the figures for the inhibition at 250 µM in assay [1] and in assay [2] were 64.2% and 15.7%, respectively. In addition, the “synergistic effect with meropenem” value in assay [3] was “No synergistic effect”. The figures for the IC50 at GIM-1 and against VIM-2 were 1.1 µM and 12.9 µM, respectively.
Turning to `COc1ccc(-n2cc(CN(Cc3ccccn3)Cc3ccccn3)nn2)cc1` [Example 13, 1-(1-(4-methoxyphenyl)-1H-1,2,3-triazol-4-yl)-N,N-bis(pyridin-2-ylmethyl)methanamine], the results for the inhibition at 250 µM in assay [1] and in assay [2] were 82% and 20.6%, respectively. Besides, the IC50 against NDM-1 amounted to 0.72 µM; against GIM-1 it was 1.43 µM; against VIM-2, 24.9 µM.
In the case of `C[C@@H](O)[C@H]1C(=O)N2C(C(=O)O)=C(S[C@@H]3CN[C@H](C(=O)N(C)C)C3)[C@H](C)[C@H]12` [MEM, Meropenem], the “Meropenem MIC” value with E. coli 50639799 (VIM-1) was 8 to 16 µg/mL; in assay [4], 64 to 256 µg/mL; in [5], 32 to 64 µg/mL; in [6] (absence of inhibitor), 32 µg/mL; in the assay on E. coli K71-77 (NDM-1), 1 to 4 µg/mL; in assay [7] (absence of inhibitor), 0.5 µg/mL.
For `c1ccc(CN(CCN(Cc2ccccn2)Cc2ccccn2)Cc2ccccn2)nc1` [TPEN, N,N,N′,N′-tetrakis(2-pyridylmethyl) ethylenediamine, reference compound], the “synergistic activity with meropenem” value in assay [8] was “Synergistic activity”. In addition, the figures for the IC50 against GIM-1 and against VIM-2 were 0.61 µM and 0.3 µM, respectively. For the same compound, the “Meropenem MIC (mg/L) in presence of compound” value in assay [9] is 64 mg/L; in assay [6] (compound at 125 μM) it was no more than 0.064 mg/L; in assay [7] (compound at 125 μM), 1 mg/L.
